Source: ChEMBL document CHEMBL4699652, “Proline Hinged Amphipathic α-Helical Peptide Sensitizes Gram-Negative Bacteria to Various Gram-Positive Antibiotics” (J Med Chem, 2020)
The source made the active and inactive calls. No cut-off for these calls is given here.

Columns and labels:
[1] = tested on: Cell membrane; experiment: Induction of outer membrane re-arragenemnts in Escherichia coli D21f2 incubated for 4 mins by NPN uptake assay; format: subcellular
[2] = tested on: Escherichia coli; experiment: Sensitization of linezolid-induced antimicrobial activity against Escherichia coli ATCC 25922 infected in ICR CD1 mouse model of sepsis protection model assessed as increase in mouse survival at 30 mg/kg, ip q1h x 8 hrs for 7 days co-treated with 25 mg/kg, sc q4h x 8 hrs linezolid; format: functional, organism-based; conditions: time 7.0 day
[3] = tested on: Escherichia coli; experiment: Antimicrobial activity against Escherichia coli ATCC 25922 assessed as inhibition of bacterial growth incubated for 18 hrs by CLSI based method; format: functional
[4] = tested on: Cell membrane; experiment: Induction of outer membrane permeability in Escherichia coli assessed as periplasmic-beta-lactamase release at 5 uM using CENTA; format: subcellular
[5] = tested on: Escherichia coli; experiment: Binding affinity to cell membrane using POPC/cholesterol (8/2) by SPR assay
[6] = tested on: Escherichia coli; experiment: Binding affinity to inner membrane using POPE/POPG (7/3) by SPR assay
[7] = tested on: Staphylococcus aureus; experiment: Sensitization of rifampicin-induced antimicrobial activity against methicillin-resistant Staphylococcus aureus assessed as inhibition of bacterial growth at 8 ug/ml incubated for 18 hrs by CLSI based method; format: functional, organism-based; conditions: dose 8.0 µg/ml
[8] = tested on: Escherichia coli; experiment: Antimicrobial activity against Escherichia coli ATCC 25922 assessed as reduction in cell viability at 10 to 10000 uM by propidium iodide staining based assay; format: functional, organism-based; conditions: dose microM 10-10000
[9] = tested on: Lipopolysaccharide (LPS); experiment: Binding affinity to Escherichia coli LPS in POPE/POPG lipid layers containing wild-type LPS by SPR assay
[10] = tested on: Lipopolysaccharide (LPS); experiment: Binding affinity to O-antigen-deficient Escherichia coli LPS in POPE/POPG lipid layers containing O-antigen-deficient LPS by SPR assay
[11] = tested on: Escherichia coli; experiment: Sensitization of colistin-induced antimicrobial activity against NDM-1 producing carbapenem-resistant Escherichia coli infected in ICR CD1 mouse model of sepsis protection model assessed as increase in mouse survival at 12.5 mg/kg, sc QD for 1 days co-treated with 40 mg/kg, sc QD colistin; format: functional; conditions: time 1 day
[12] = tested on: Escherichia coli; experiment: Sensitization of rifampicin-induced induction of cell killing in Escherichia coli assessed as time needed for bacterial destruction at 8 ug/ml; format: functional; conditions: dose 8 µg/ml
[13] = tested on: Escherichia coli; experiment: Antimicrobial activity against NDM-1 producing carbapenem-resistant Escherichia coli infected in ICR CD1 mouse model of sepsis protection model assessed as increase in mouse survival at 40 mg/kg, sc QD; format: functional, organism-based

Ac-KLLKLLKKPLKLLK-NH2
Activity [1]: inactive | Activity [2]: Active | MIC [3]: > 80 µM | Activity [4]: inactive | Activity [5]: inactive | Activity [6]: Active | Activity [7]: Active | Activity [8]: inactive | Activity [9]: Active | Activity [10]: Active | Activity [11]: 75% | Time [12]: 8 h | Activity [13]: inactive
